The values below are quoted from earlier work in US20050281746A1, “Anticoagulant contrast media” (priority 2004, published 2005).

For data set [1] the following is noted: X-ray contrast agents grouped by ionicity and benzene rings.
For data set [2] the following is noted: X-ray contrast agents grouped by structure.
The conditions of data set [3]: X-ray contrast agents grouped by structure; classes High / Low / Iso.

`COCC(O)CN(C(C)=O)c1c(I)c(C(=O)NCC(O)CO)c(I)c(C(=O)NCC(O)CO)c1I` (centres unmarked) [Iopentol]: the Adverse effects entry in data set [1] is listed as “Thrombotic”.
Take `COCC(=O)Nc1c(I)c(C(=O)NCC(O)CO)c(I)c(C(=O)N(C)CC(O)CO)c1I` (centres unmarked) [Iopromide]: the Adverse effects result in data set [1] is on record as “Thrombotic”.
Take `CC(=O)N(CC(O)CN(C(C)=O)c1c(I)c(C(=O)NCC(O)CO)c(I)c(C(=O)NCC(O)CO)c1I)c1c(I)c(C(=O)NCC(O)CO)c(I)c(C(=O)NCC(O)CO)c1I` (centres unmarked) [Iodixanol]: in data set [2], the “Viscosity (cps)” value is 26 cps. Moreover, the Adverse effects result in data set [1] is recorded as “Thrombotic”. Besides, the “Osmolality (mOsm/kg)” value in data set [3] is “(280) mOsm/kg”.
`C[C@H](O)C(=O)Nc1c(I)c(C(=O)NC(CO)CO)c(I)c(C(=O)NC(CO)CO)c1I` [Iopamidol]: in data set [1], the Adverse effects result is “Thrombotic”.
Take `CC(=O)N(CC(O)CO)c1c(I)c(C(=O)NCC(O)CO)c(I)c(C(=O)NCC(O)CO)c1I` (centres unmarked) [Iohexol]: the Adverse effects entry in data set [1] is on record as “Thrombotic”.
Turning to `CN(C(=O)CO)c1c(I)c(C(=O)NCC(O)CO)c(I)c(C(=O)NCC(O)CO)c1I` (centres unmarked) [Iomerpol], in data set [1], the Adverse effects result is on record as “Thrombotic”.
